IC50 data for 47 compounds are collected here from patent publication EP1611112B1, “ISOXAZOLE COMPOUNDS AS INHIBITORS OF HEAT SHOCK PROTEINS” (Vernalis (Cambridge) Limited, priority 2003, dated 2004).

For the first assay, the target named is T1, human full-length HSP90 (Homo sapiens, UniProt P08238).
T1 construct: E. coli expressed human full-length HSP90 protein; made in house; host or cells: E. coli
T1 sequence (P08238 whole entry): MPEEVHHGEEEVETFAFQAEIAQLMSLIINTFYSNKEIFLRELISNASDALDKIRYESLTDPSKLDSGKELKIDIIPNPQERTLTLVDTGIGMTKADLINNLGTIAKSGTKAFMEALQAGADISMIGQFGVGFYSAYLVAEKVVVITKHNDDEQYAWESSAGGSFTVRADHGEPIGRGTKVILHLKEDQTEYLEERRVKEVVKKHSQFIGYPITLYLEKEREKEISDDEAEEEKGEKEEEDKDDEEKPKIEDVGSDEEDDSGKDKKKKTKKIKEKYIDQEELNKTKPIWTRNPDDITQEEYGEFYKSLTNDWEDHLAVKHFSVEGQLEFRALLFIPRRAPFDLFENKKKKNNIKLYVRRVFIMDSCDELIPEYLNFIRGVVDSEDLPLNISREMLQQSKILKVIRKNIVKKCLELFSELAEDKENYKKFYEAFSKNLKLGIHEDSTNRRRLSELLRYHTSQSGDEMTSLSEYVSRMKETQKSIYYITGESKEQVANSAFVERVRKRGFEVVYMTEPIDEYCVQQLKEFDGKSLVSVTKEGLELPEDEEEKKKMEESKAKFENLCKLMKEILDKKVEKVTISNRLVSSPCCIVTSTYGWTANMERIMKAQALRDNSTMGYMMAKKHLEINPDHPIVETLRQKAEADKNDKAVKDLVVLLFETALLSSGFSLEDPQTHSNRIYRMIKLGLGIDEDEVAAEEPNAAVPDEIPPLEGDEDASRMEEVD
The assay can be described thus: Fluorescence Polarisation Assay (displacement of fluorescein-labelled probe RBT0045864-FAM). The conditions noted are these: Fluorescence Polarisation Assay, activity range. It counts as binding. An excerpt:
A Fluorescence Polarization_assay was also employed for the evaluation of some of the compounds of the Examples:
Fluorescence polarization {also known as fluorescence anisotropy} measures the rotation of a fluorescing species in solution, where the larger molecule the more polarized the fluorescence emission.
When the fluorophore is excited with polarized light, the emitted light is also polarized. The molecular size is proportional to the polarization of the fluorescence emission.
Test compound is added to the assay plate, left to equilibrate and the anisotropy measured again. Any change in anisotropy is due to competitive binding of compound to HSP90, thereby releasing probe.
Stored at room temperature. • 3) BSA (bovine serum albumen) 10 mg/ml (New England Biolabs # B9001S) • 4) 20 mM probe in 100 % DMSO stock concentration. Stored in the dark at RT. Working concentration is 200 nM diluted in AR water and stored at 4 °C.
1) Add 100µl 1x buffer to wells 11A and 12A (=FP BLNK) 2) Prepare assay mix - all reagents are kept on ice with a lid on the bucket as the probe is light-sensitive.
This gives 2.5 mM {50x} stock cpd - assuming cpds 20 mM. • 4) Repeat for wells A2 to A10. Control in columns 11 and 12. • 5) Transfer 5 µl from row A to row B- not column 12. Mix well. • 6) Transfer 5 µl from row B to row C. […] Add 2 µl of 100mM standard cpd to wells B12 - H12 {is positive control } • 13)The Z' factor is calculated from zero controls and positive wells.
For orientation: Polarisation of emitted light reports the rotation of a fluorescent probe.
Regarding `Cc1nc(-c2c(-c3ccc(O)cc3O)noc2C(F)(F)F)cs1` [Example 76A], the concentration for half-maximal inhibition (IC50) (in general, the midpoint of a concentration-inhibition curve) is greater than 10 µM. In turn, `CCNC(=O)c1noc(-c2cc(Cl)c(O)cc2O)c1-c1ccc2ncccc2c1` [Example 33] yielded a half-inhibitory concentration (IC50) of less than 10 µM. For the compound `CCNC(=O)c1noc(-c2cc(CCc3ccc(F)cc3)c(O)cc2O)c1-c1ccc(CN2CCCCC2)cc1` [Example 69], the IC50 is less than 10 µM.

Compound `NC(=O)c1noc(-c2cc(Cl)c(O)cc2O)c1-c1ccc(CN2CCCCC2)cc1` [Example 41h] registered an IC50 of less than 10 µM. On the same count and under the same terms, for `CCNC(=O)c1noc(-c2cc(-c3ccc(F)cc3)c(O)cc2O)c1-c1ccc(CN2CCOCC2)cc1` [Example 73] the value was less than 10 µM; for `CCNC(=O)c1noc(-c2cc(Cl)c(O)cc2O)c1-c1ccc(CO)cc1` [Example 41n], less than 10 µM; for `CCNCc1noc(-c2cc(Cl)c(O)cc2O)c1-c1ccc(OC)cc1` [Example 40], less than 10 µM. `CCNC(=O)c1noc(-c2cc(Cl)c(O)cc2O)c1-c1ccc(F)c(CN2CCN(C(C)=O)CC2)c1` [Example 63] had a half-inhibitory concentration (IC50) of less than 10 µM. Compound `CCNC(=O)c1noc(-c2cc(Cl)c(O)cc2O)c1-c1ccc(CN2CCC(O)CC2)cc1` [Example 53] registered an IC50 of less than 10 µM. In turn, `CCNC(=O)c1noc(-c2cc(Cl)c(O)cc2O)c1-c1ccc(CN(C)C)cc1` [Example 59] gave an IC50 of less than 10 µM. In turn, `CCNC(=O)c1noc(-c2cc(CC)c(O)cc2O)c1-c1ccc(CN2CCOCC2)cc1` [Example 55] showed a half-inhibitory concentration (IC50) of less than 10 µM. Turning to `CCNC(=O)c1noc(-c2cc(Cl)c(O)cc2O)c1-c1ccc(CN2CCOCC2)cc1C` [Example 41j], the IC50 is less than 10 µM. As to `CCNC(=O)c1noc(-c2cc(Cl)c(O)cc2O)c1-c1ccc(C(C)N2CCOCC2)cc1` (centres unmarked) [Example 42], the concentration for half-maximal inhibition (IC50) is less than 10 µM. The compound `CNC(=O)c1noc(-c2cc(Cl)c(O)cc2O)c1-c1ccc(CN2CCCCC2)cc1` [Example 41c] registered an IC50 of less than 10 µM. Still for that read-out and setting: with `CCNC(=O)c1noc(-c2cc(-c3ccccc3)c(O)cc2O)c1-c1ccc(F)cc1` [Example 67] the figure was less than 10 µM; with `Cc1noc(-c2cc(Cl)c(O)cc2O)c1-c1cccc(CN2CCC(C(N)=O)CC2)c1` [Example 29, 1-{3-[5-(5-Chloro-2,4-dihydroxy-phenyl)-3-methyl-isoxazol-4-yl]-benzyl}-piperidine-4-carboxylic acid amide], less than 10 µM; with `CCNC(=O)c1noc(-c2cc(Cl)c(O)cc2O)c1-c1ccc(CN2CCS(=O)(=O)CC2)cc1` [Example 38], less than 10 µM. Same read-out and setting: for `CCNC(=O)c1noc(-c2cc(Cl)c(O)cc2O)c1-c1cccc2ccccc12` [Example 35] the value was less than 10 µM; for `CCNC(=O)c1noc(-c2cc(Cl)c(O)cc2O)c1-c1ccc(F)c(CN2CCOCC2)c1` [Example 64], less than 10 µM. The compound `CCNC(=O)c1noc(-c2cc(CC)c(O)cc2O)c1-c1ccc(CN(CC)CC)cc1` [Example 41b] yielded an IC50 of less than 10 µM.

As to `CCNC(=O)c1noc(-c2cc(CC)c(O)cc2O)c1-c1ccc(CN2CCCCC2)cc1` [Example 56], the IC50 is less than 10 µM. Consider `CCNC(=O)c1noc(-c2cc(Cl)c(O)cc2O)c1-c1ccccc1CN1CCOCC1` [Example 41m], for which the IC50 was less than 10 µM. Compound `CC(=O)Nc1cccc(-c2c(C)noc2-c2cc(Cl)c(O)cc2O)c1` [Example 30] displayed an IC50 of less than 10 µM. `CCNC(=O)c1noc(-c2cc(Cl)c(O)cc2O)c1-c1ccc2ccccc2c1` [Example 32] had a 50% inhibitory concentration (IC50) of less than 10 µM. `CCNC(=O)c1noc(-c2cc(Cl)c(O)cc2O)c1-c1cccc(N2CCN(C)CC2)c1` [Example 31, 5-(5-Chloro-2,4-dihydroxy-phenyl)-4-[3-(4-methyl-piperazin-1-yl)-phenyl]-isoxazole-3-carboxylic acid ethylamide] registered an IC50 of less than 10 µM.

On to `CCNC(=O)c1noc(-c2cc(Cl)c(O)cc2O)c1-c1cccc(C(C)N2CCOCC2)c1` (centres unmarked) [Example 44], for which the half-inhibitory concentration (IC50) was less than 10 µM. In turn, `CC(C)NC(=O)c1noc(-c2cc(Cl)c(O)cc2O)c1-c1ccc(CN2CCCCC2)cc1` [Example 41p] yielded an IC50 of less than 10 µM. Still for that read-out and setting: for `CCNC(=O)c1noc(-c2cc(Cl)c(O)cc2O)c1-c1ccc(CN2CCCCC2)cc1C` [Example 41i] the value was less than 10 µM; for `CCNC(=O)c1noc(-c2cc(Cl)c(O)cc2O)c1-c1ccc(CN2CCN(C)CC2)cc1` [Example 47], less than 10 µM.

Staying with this assay, now noted: Fluorescence Polarisation Assay, key in footnote of the table.
As for `COc1ccc(-c2c(C)noc2-c2cc(C#N)c(O)cc2O)cc1` [Example 12b], the IC50 is less than 10 µM.

Staying with this assay, now noted: table names no assay; parent examples tested in fluorescence polarization assay.
In the case of `CCNC(=O)c1noc(-c2cc(C(C)(C)C)c(O)cc2O)c1-c1ccc(CN2CCOCC2)cc1` [Example 77a], the IC50 is less than 10 µM. On the same count and under the same terms, with `CCNC(=O)c1noc(-c2cc(CCc3cccc(C)c3)c(O)cc2O)c1-c1ccc(CN2CCCCC2)cc1` [Example 75a] the figure was less than 10 µM; with `CCNC(=O)c1noc(-c2cc(-c3ccccc3F)c(O)cc2O)c1-c1ccc(CN2CCOCC2)cc1` [Example 75f], less than 10 µM; with `CCNC(=O)c1noc(-c2cc(C(C)C)c(O)cc2O)c1-c1ccc(CNCC(F)(F)F)cc1` [Example 78ab], less than 10 µM. Same read-out and setting: with `CCNC(=O)c1noc(-c2cc(C(C)C)c(O)cc2O)c1-c1ccc(CNC(C)(C)C)cc1` [Example 78l] the figure was less than 10 µM; with `CCNC(=O)c1noc(-c2cc(C(C)C)c(O)cc2O)c1-c1ccc(CNC(C)C)cc1` [Example 78e], less than 10 µM; with `CCNC(=O)CNCc1ccc(-c2c(C(=O)NCC)noc2-c2cc(C(C)C)c(O)cc2O)cc1` [Example 78ah], less than 10 µM.

As for `CCNC(=O)c1noc(-c2cc(C(C)C)c(O)cc2O)c1-c1ccc(CN2CCN(C)CC2)cc1` [Example 78c], the IC50 was less than 10 µM. Regarding `CCNC(=O)c1noc(-c2cc(-c3ccccc3)c(O)cc2O)c1-c1ccc(CN2CCCCC2)cc1` [Example 75b], the IC50 was less than 10 µM. As for `CCNC(=O)c1noc(-c2cc(C(C)C)c(O)cc2O)c1-c1ccc(CNCCN(CC)CC)cc1` [Example 78n], the IC50 is less than 10 µM. The same measure, in the same setting: with `CC(C)NC(=O)c1noc(-c2cc(C(C)C)c(O)cc2O)c1-c1ccc(CN2CCC(F)(F)CC2)cc1` [Example 78aa] the figure was less than 10 µM; with `CCNC(=O)c1noc(-c2cc(C(C)(C)C)c(O)cc2O)c1-c1ccc(CN2CCN(C)CC2)cc1` [Example 77d], less than 10 µM. Same read-out and setting: for `CCNC(=O)c1noc(-c2cc(C(C)(C)C)c(O)cc2O)c1-c1ccc(CN2CCCCC2)cc1` [Example 77c] the value was less than 10 µM. Turning to `CCNC(=O)c1noc(-c2cc(-c3ccccc3C)c(O)cc2O)c1-c1ccc(CN(CC)CC)cc1` [Example 75t], the IC50 is less than 10 µM.

As for `CCNC(=O)c1noc(-c2cc(C(C)(C)C)c(O)cc2O)c1-c1ccc(F)cc1` [Example 77e], the IC50 was less than 10 µM. On to `CCNC(=O)c1onc(-c2cc(Cl)c(O)cc2O)c1-c1ccc(CN2CCOCC2)cc1` [Example 76C], for which the IC50 was less than 10 µM. For `CCNC(=O)c1noc(-c2cc(CCc3cccc(C)c3)c(O)cc2O)c1-c1ccc(CN2CCOCC2)cc1` [Example 75c], the 50% inhibitory concentration (IC50) is less than 10 µM.
